According to patent publication US20180042918A1, “RESPIRATORY INFECTION TREATING AGENT” (KYORIN PHARMACEUTICAL CO., LTD., priority 2015, published 2018):
Converted amounts (≈) assume the structure as drawn. Marks after values point to notes of the source that are not given here.

Assays:
[1] = male rat, 0.5 hours after single oral administration; cited from earlier work
E. coli ATCC25922 [2] = experiment: microbe, parasite or virus in culture; type: cell-based; settings: Escherichia coli
S. aureus ATCC29213 = experiment: Frequency of development of resistant bacteria; type: cell-based, Staphylococcus aureus; settings: for FREQUENCY OF DEVELOPMENT OF RESISTANT BACTERIA (AVERAGE OF TWO MEASURED VALUES): about 70 hours
Description: (§1) S. aureus ATCC29213 is Staphylococcus aureus, S. pneumoniae ATCC49619 is Streptococcus pneumoniae, and E. coli ATCC25922 is Escherichia coli. […]
(§2) The frequency of development of resistant bacteria was calculated by dividing the number of colonies developed on an agar medium having each drug concentration by the number of initially inoculated bacteria.

E. coli ATCC25922 [3] = experiment: Frequency of development of resistant bacteria; type: cell-based, Escherichia coli; settings: for FREQUENCY OF DEVELOPMENT OF RESISTANT BACTERIA (AVERAGE OF TWO MEASURED VALUES): about 70 hours
Description: as §1, §2

S. pneumoniae ATCC49619 = experiment: Frequency of development of resistant bacteria; type: cell-based, Streptococcus pneumoniae; settings: for FREQUENCY OF DEVELOPMENT OF RESISTANT BACTERIA (AVERAGE OF TWO MEASURED VALUES): about 70 hours
Description: as §1, §2

SMILES | tissue distribution ratio into the lung tissue [1] | MIC (E. coli ATCC25922 [2]) [ng/mL] | development of resistant bacteria (in words) (S. aureus ATCC29213; S. aureus ATCC29213, 4 to 16 × MIC) | FREQUENCY OF DEVELOPMENT OF RESISTANT BACTERIA (AVERAGE OF TWO MEASURED VALUES) (S. aureus ATCC29213; S. aureus ATCC29213, 4 × MIC) | FREQUENCY OF DEVELOPMENT OF RESISTANT BACTERIA (AVERAGE OF TWO MEASURED VALUES) (S. aureus ATCC29213; S. aureus ATCC29213, 8 × MIC) | FREQUENCY OF DEVELOPMENT OF RESISTANT BACTERIA (AVERAGE OF TWO MEASURED VALUES) (S. aureus ATCC29213; S. aureus ATCC29213, 16 × MIC) | development of resistant bacteria (in words) (E. coli ATCC25922 [3]; E. coli ATCC25922, 4 to 16 × MIC) | FREQUENCY OF DEVELOPMENT OF RESISTANT BACTERIA (AVERAGE OF TWO MEASURED VALUES) (E. coli ATCC25922 [3]; E. coli ATCC25922, 4 × MIC) | FREQUENCY OF DEVELOPMENT OF RESISTANT BACTERIA (AVERAGE OF TWO MEASURED VALUES) (E. coli ATCC25922 [3]; E. coli ATCC25922, 8 × MIC) | FREQUENCY OF DEVELOPMENT OF RESISTANT BACTERIA (AVERAGE OF TWO MEASURED VALUES) (E. coli ATCC25922 [3]; E. coli ATCC25922, 16 × MIC) | development of resistant bacteria (in words) (S. pneumoniae ATCC49619; S. pneumoniae ATCC49619, 4 to 16 × MIC) | FREQUENCY OF DEVELOPMENT OF RESISTANT BACTERIA (AVERAGE OF TWO MEASURED VALUES) (S. pneumoniae ATCC49619; S. pneumoniae ATCC49619, 4 × MIC) | FREQUENCY OF DEVELOPMENT OF RESISTANT BACTERIA (AVERAGE OF TWO MEASURED VALUES) (S. pneumoniae ATCC49619; S. pneumoniae ATCC49619, 8 × MIC) | FREQUENCY OF DEVELOPMENT OF RESISTANT BACTERIA (AVERAGE OF TWO MEASURED VALUES) (S. pneumoniae ATCC49619; S. pneumoniae ATCC49619, 16 × MIC)
N[C@@H]1CN(c2c(F)cc3c(=O)c(C(=O)O)cn([C@@H]4C[C@@H]4F)c3c2Cl)CC12CC2 [sitafloxacin] | 2.7 |  |  |  |  |  |  |  |  |  |  |  |  | 
O=C(O)c1cn(C2CC2)c2cc(N3CCNCC3)c(F)cc2c1=O [CPFX, ciprofloxacin] |  | 8 (≈ 0.0241 µM) | developed | 6.2 × 10^−9* | 3.1 × 10^−9* | <2.1 × 10^−9 | developed | 1.2 × 10^−8* | <1.9 × 10^−9 | <1.9 × 10^−9 | developed | 1.1 × 10^−8* | <1.1 × 10^−8 | <1.1 × 10^−8
